The results in this text go back to ChEMBL document CHEMBL2021760, “4-(1-Phenyl-1H-pyrazol-4-yl)quinolines as novel, selective and brain penetrant metabotropic glutamate receptor 4 positive allosteric modulators” (Bioorg Med Chem Lett, 2012).

The target of experiment [1] is T1, Metabotropic glutamate receptor 4 (Homo sapiens, UniProt Q14833). The experiment can be described thus: Positive allosteric modulation of human mGlu4 receptor expressed in BHK cells assessed as potentiation of glutamate-induced calcium mobilization by FLIPR analysis. It counts as functional, cell-based. (Calcium assays in cells follow changes in intracellular calcium, usually with a dye or a luminescent sensor.)
T1 sequence (Q14833 whole entry): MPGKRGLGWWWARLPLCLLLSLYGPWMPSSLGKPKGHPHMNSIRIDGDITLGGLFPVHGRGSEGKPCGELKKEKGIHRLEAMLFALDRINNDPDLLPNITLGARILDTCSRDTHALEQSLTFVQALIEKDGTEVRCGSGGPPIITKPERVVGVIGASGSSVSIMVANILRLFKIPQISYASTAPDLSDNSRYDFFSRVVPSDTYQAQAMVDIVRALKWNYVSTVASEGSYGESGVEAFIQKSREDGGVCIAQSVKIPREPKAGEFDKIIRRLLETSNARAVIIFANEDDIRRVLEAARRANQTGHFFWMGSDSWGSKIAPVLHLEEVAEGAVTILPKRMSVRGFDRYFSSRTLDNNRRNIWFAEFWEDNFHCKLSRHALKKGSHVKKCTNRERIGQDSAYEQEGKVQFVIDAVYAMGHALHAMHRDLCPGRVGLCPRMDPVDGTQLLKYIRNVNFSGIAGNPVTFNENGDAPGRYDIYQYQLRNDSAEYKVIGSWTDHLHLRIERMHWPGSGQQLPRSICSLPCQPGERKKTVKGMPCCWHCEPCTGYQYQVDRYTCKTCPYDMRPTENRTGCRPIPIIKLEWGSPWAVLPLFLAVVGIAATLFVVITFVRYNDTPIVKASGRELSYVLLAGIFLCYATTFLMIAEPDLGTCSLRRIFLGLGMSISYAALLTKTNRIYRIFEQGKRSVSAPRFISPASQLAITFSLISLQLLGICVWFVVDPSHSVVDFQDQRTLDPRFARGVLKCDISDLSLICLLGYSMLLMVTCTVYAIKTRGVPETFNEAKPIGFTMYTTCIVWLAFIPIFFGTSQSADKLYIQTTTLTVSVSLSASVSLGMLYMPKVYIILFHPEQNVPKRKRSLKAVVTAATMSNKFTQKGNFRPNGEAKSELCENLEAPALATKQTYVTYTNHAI

Experiment [2] deals with T1, Metabotropic glutamate receptor 4. The experiment can be described thus: Positive allosteric modulation of human mGlu4 receptor expressed in BHK cells assessed as potentiation of glutamate-induced calcium mobilization by FLIPR analysis relative to PHCCC. It counts as functional, cell-based.

The structures appear in SMILES notation.

By EC50 is commonly meant the concentration that produces a half-maximal response. By Emax is commonly meant the maximal effect, on the per cent scale that the assay sets.

As to `Clc1ccc2c(-c3cnn(-c4ccccc4)c3)ccnc2c1`, the 50% effective concentration (EC50) in experiment [1] came to 590 nM. In addition, the maximum response (Emax) in experiment [2] came to 100%.
For `Fc1ccccc1-n1cc(-c2ccnc3ccccc23)cn1` the same measures were 1100 nM and 70%.
Turning to `c1ccc(-n2cc(-c3ccnc4cc(OCCCN5CCCC5)ccc34)cn2)cc1`, the concentration for a half-maximal effect (EC50) in experiment [1] is over 10000 nM. The maximal effect (Emax) in experiment [2] was 7%.
In the case of `Fc1cccc(-n2cc(-c3ccnc4ccccc34)cn2)c1`, the 50% effective concentration (EC50) in experiment [1] is 3100 nM. In experiment [2], the maximal effect (Emax) came out at 92%.
On the same counts, the results for `CCNC(=O)Oc1ccc2c(-c3cnn(-c4ccccc4)c3)ccnc2c1` are 10000 nM and 86%.
On the same counts, the results for `c1ccc(-n2cc(-c3ccnc4cc(OCCN5CCCC5)ccc34)cn2)cc1` are over 10000 nM and 9%.
For `c1ccc(-n2cc(-c3ccnc4cc(OCCN5CCOCC5)ccc34)cn2)cc1` the same measures were 1800 nM and 39%.
As for `O=C(Oc1ccc2c(-c3cnn(-c4ccccc4)c3)ccnc2c1)N1CCOCC1`, the EC50 in experiment [1] amounted to 900 nM. Further, in experiment [2], the Emax stood at 84%.
`c1ccc(-n2cc(-c3ccncc3)cn2)cc1`: in experiment [1], the EC50 is over 10000 nM. Moreover, in experiment [2], the Emax amounted to 39%.
For `Cc1nn(-c2ccccc2)cc1-c1ccnc2ccccc12` the same measures were 480 nM and 130%.
On the same counts, the results for `CN(C)C(=O)COc1ccc2c(-c3cnn(-c4ccccc4)c3)ccnc2c1` are over 10000 nM and 11%.
On the same counts, the results for `c1ccc(COc2ccc3c(-c4cnn(-c5ccccc5)c4)ccnc3c2)cc1` are 640 nM and 110%.
Regarding `c1ccc(-n2cc(-c3ccnc4cc(OCCCN5CCCCC5)ccc34)cn2)cc1`, in experiment [1], the EC50 was over 10000 nM. Also, the Emax in experiment [2] was found to be 23%.
On the same counts, the results for `Cc1cnccc1-c1cnn(-c2ccccc2)c1` are 5100 nM and 90%.
With `O=C(Oc1ccc2c(-c3cnn(-c4ccccc4)c3)ccnc2c1)N1CCCC1`, the EC50 in experiment [1] was 500 nM. Further, in experiment [2], the Emax amounted to 120%.
For `CCOc1ccc2c(-c3cnn(-c4ccccc4)c3)ccnc2c1` the same measures were 540 nM and 93%.
Take `c1ccc(-n2cc(-c3ccnc4ccccc34)cn2)nc1`: the EC50 in experiment [1] worked out at 2100 nM. In experiment [2], the maximal effect (Emax) was determined as 92%.
For `CN(C)CCOc1ccc2c(-c3cnn(-c4ccccc4)c3)ccnc2c1` the same measures were over 10000 nM and 23%.
On the same counts, the results for `Cc1nn(-c2ccccc2)c(C)c1-c1ccnc2ccccc12` are 840 nM and 150%.
On the same counts, the results for `COCCCOc1ccc2c(-c3cnn(-c4ccccc4)c3)ccnc2c1` are 250 nM and 88%.
For `c1ccc2c(-c3cn[nH]c3)ccnc2c1`, the 50% effective concentration (EC50) in experiment [1] was over 10000 nM. Besides, in experiment [2], the maximum response (Emax) amounted to 6%.
On the same counts, the results for `O=C(Oc1ccc2c(-c3cnn(-c4ccccc4)c3)ccnc2c1)N1CCCCC1` are 190 nM and 130%.
On the same counts, the results for `Oc1ccc2c(-c3cnn(-c4ccccc4)c3)ccnc2c1` are over 10000 nM and 4%.
Regarding `OCCCOc1ccc2c(-c3cnn(-c4ccccc4)c3)ccnc2c1`, in experiment [1], the EC50 is over 10000 nM. Moreover, the Emax in experiment [2] worked out at 23%.
As for `Fc1ccc(-n2cc(-c3ccnc4ccccc34)cn2)cc1`, the EC50 in experiment [1] worked out at 2900 nM. Besides, the maximum response (Emax) in experiment [2] was 110%.
On to `FC(F)(F)c1ccc2c(-c3cnn(-c4ccccc4)c3)ccnc2c1`, for which, in experiment [1], the EC50 stood at 550 nM. In addition, the maximum response (Emax) in experiment [2] was 140%.
Turning to `c1ccc(-n2cc(-c3c[nH]c4ccccc34)cn2)cc1`, in experiment [1], the concentration giving a half-maximal response (EC50) amounted to 2500 nM. In experiment [2], the Emax worked out at 44%.
With `c1ccc(-n2cc(-c3ccnc4c3CCC4)cn2)cc1`, the concentration for a half-maximal effect (EC50) in experiment [1] was 2300 nM. Besides, in experiment [2], the Emax worked out at 65%.
`Fc1ccc2c(-c3cnn(-c4ccccc4)c3)ccnc2c1`: the EC50 in experiment [1] amounted to 730 nM. Also, in experiment [2], the maximal effect (Emax) worked out at 120%.
On the same counts, the results for `c1ccc(-n2cc(-c3n[nH]c4ccccc34)cn2)cc1` are 2400 nM and 42%.
